Experimental data published in patent US9006283B2, “Methods of modifying amyloid β oligomers using non-peptidic compounds” (Acumen Pharmaceuticals, Inc., priority 2007, dated 2015).
Each block holds one compound with its values, some of them ahead of it.

Tests used:
[1] = molecular target: Aβ1-42 monomer assembly into Aβ oligomers (ADDLs) (Homo sapiens (Human), UniProt P05067); assay: FRET assay of Aβ1-42 oligomer (ADDL) assembly inhibition; assay type: biochemical
From the text: Fluorescence (or Förster) Resonance Energy Transfer (FRET) is a distance-dependent, non-radiative transfer of energy in which the de-excitation of one fluorophore (donor) is coupled to excitation of another fluorophore (acceptor). FRET occurs if (1) the quantum of energy emitted by a donor fluorophore corresponds to an acceptor fluorophore's excitation energy, (2) the orientations of donor and acceptor transition dipoles are nearly parallel and (3) the donor fluorescent emission spectrum overlaps the acceptor absorption spectrum.
In this assay, assembly of Aβ1-42 oligomer formation is monitored by FRET using N-terminal conjugates of fluorescein-Aβ1-42 as both the donor and acceptor fluorophore (fluorescein-fluorescein Ro˜45 Å). Aβ1-42 monomers assembling into oligomeric species results in a decrease of fluorescence as the fluorescein labeled Aβ1-42 peptides become proximal to each other and FRET efficiency increases. Inhibition of Aβ1-42 assembly is observed as the absence or attenuation of fluorescein quenching.
FRET and FP assays are performed in 384-well Corning Non-Binding Surface, black, opaque microtiter plates, and the assay buffer consists of 50 mM MOPS-Tris (pH 8.0) with 100 mM MgCl2. […] ADDL assembly is monitored on a Tecan GENios Pro plate reader, exciting at a wavelength of 485 nm and detecting emission at a wavelength of 515 nm. […]

[2] = cited from earlier work
[3] = cited from earlier work; remark: listed apart in the source

Sequence of Aβ1-42 monomer assembly into Aβ oligomers (ADDLs) (P05067 672-713): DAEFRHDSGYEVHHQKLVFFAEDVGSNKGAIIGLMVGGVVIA

inhibition of Aβ1-42 oligomer assembly ([1]; FIG. 1, Test Compound A ranging from 0.05 to 3 mM (0.05 to 3 μM in figure legend)): dose dependent inhibition
SMILES: CCOC(=O)c1c(NC(=O)C(=O)N/N=C/c2ccccc2O)sc2c1CCC(C)C2 (stereo not drawn) [Compound 4, 2-{[1-(2-Hydroxyphenyl)-meth-(E)-ylidene-hydrazinooxalyl]-amino}-6-methyl-4,5,6,7-tetrahydro-benzo[b]thiophene-3-carboxylic acid ethyl ester]

SMILES: Oc1c(I)cc(Cl)c2cccnc12 [Clioquinol]
patients' cognitive ability ([2]; compared to untreated patients): stabilize
Aβ1-42 levels in plasma ([2]; patients' plasma): lower

inhibition of Aβ1-42 monomer assembly into Aβ oligomers ([1]; FIG. 2, standard FRET assay conditions of Example 1): inability
SMILES: NCCCS(=O)(=O)O [Alzhemed, 3-amino-1-propanesulfonic acid]
cognitive decline ([3]; 20 month open-label extension of Phase II trial, some patients with mild AD): slowed cognitive decline
efficacy ([3]; blinded phase of the study): no efficacy was observed
